Source: PubChem BioAssay AID330 (DTP/NCI, 2004)
Values joined by “and” are separate entries in the source; they are usually repeats but may differ in a detail not shown here. Equal entries are not always repeated. Toxic doses and inconclusive results are not listed.

Tested on: P388 leukemia ip, CD2F1 mice, survival T/C
Assay: NCI In Vivo Anticancer Drug Screen. Data for tumor model P388 Leukemia (intraperitoneal) in CD2F1 (CDF1) mice
Details: endpoint: median survival time, higher = longer survival
Outline: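 Mice carrying the transplanted tumor received test compound or vehicle. Survival was recorded in each group, and the value is the treated-group measurement divided by that of the vehicle-treated control group.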

[1] = dose: 12.5 mg/kg/injection, schedule: Q01DX009 (ip), vehicle: saline with Tween-80
[2] = dose: 25.0 mg/kg/injection, schedule: Q01DX009 (ip), vehicle: saline with Tween-80
[3] = dose: 50.0 mg/kg/injection, schedule: Q01DX009 (ip), vehicle: saline with Tween-80
[4] = dose: 30.0 mg/kg/injection, schedule: Q01DX005 (ip), vehicle: Klucel (hydroxypropylcellulose) (HPC)
[5] = dose: 60.0 mg/kg/injection, schedule: Q01DX005 (ip), vehicle: Klucel (hydroxypropylcellulose) (HPC)
[6] = dose: 240.0 mg/kg/injection, schedule: Q01DX005 (ip), vehicle: Klucel (hydroxypropylcellulose) (HPC)
[7] = dose: 120.0 mg/kg/injection, schedule: Q01DX005 (ip), vehicle: Klucel (hydroxypropylcellulose) (HPC)
[8] = dose: 100.0 mg/kg/injection, schedule: Q01DX001 (ip), vehicle: saline
[9] = dose: 200.0 mg/kg/injection, schedule: Q01DX001 (ip), vehicle: saline
[10] = dose: 400.0 mg/kg/injection, schedule: Q01DX001 (ip), vehicle: saline
[11] = dose: 50.0 mg/kg/injection, schedule: Q01DX005 (ip), vehicle: saline with Tween-80
[12] = dose: 100.0 mg/kg/injection, schedule: Q01DX005 (ip), vehicle: saline with Tween-80
[13] = dose: 50.0 mg/kg/injection, schedule: Q01DX009 (ip), vehicle: Klucel (hydroxypropylcellulose) (HPC)
[14] = dose: 100.0 mg/kg/injection, schedule: Q01DX009 (ip), vehicle: Klucel (hydroxypropylcellulose) (HPC)
[15] = dose: 200.0 mg/kg/injection, schedule: Q01DX009 (ip), vehicle: Klucel (hydroxypropylcellulose) (HPC)
[16] = dose: 25.0 mg/kg/injection, schedule: Q01DX009 (ip), vehicle: Klucel (hydroxypropylcellulose) (HPC)
[17] = dose: 100.0 mg/kg/injection, schedule: Q01DX009 (ip), vehicle: saline with Tween-80
[18] = dose: 200.0 mg/kg/injection, schedule: Q01DX009 (ip), vehicle: saline with Tween-80

Cc1nc(SCC(N)=O)nc2sc(SCC(N)=O)nc12
T/C (dose: 100.0 mg/kg/injection, schedule: Q04DX002 (ip), vehicle: suspension in saline): 96 % of control | T/C (dose: 200.0 mg/kg/injection, schedule: Q04DX002 (ip), vehicle: suspension in saline): 99 % of control | T/C (dose: 400.0 mg/kg/injection, schedule: Q04DX002 (ip), vehicle: suspension in saline): 98 % of control

NNc1nc2ccccc2s1
T/C [1]: 105 % of control | T/C [2]: 107 % of control | T/C [3]: 98 % of control

O=C(Nc1ccc(C(=O)c2ccccc2)cc1)Nc1ccc(Cl)c(Cl)c1
T/C (dose: 15.0 mg/kg/injection, schedule: Q01DX005 (ip), vehicle: Klucel (hydroxypropylcellulose) (HPC)): 93 % of control | T/C [4]: 96 % of control | T/C [5]: 89 % of control | T/C [6]: 86 % of control

O=C1C2=C(Nc3cc([N+](=O)[O-])ccc3N2)OC1c1ccc(Cl)cc1Cl (stereo not drawn)
T/C [4]: 101 % of control | T/C [5]: 89 % of control and 94 % of control | T/C [7]: 99 % of control | T/C [6]: 111 % of control

CC(=O)NCC#N
T/C [8]: 107 % of control | T/C [9]: 102 % of control | T/C [10]: 121 % of control

Cc1nnc2sc(-c3cccc(Cl)c3)nn2c1=O
T/C (dose: 50.0 mg/kg/injection, schedule: Q04DX002 (ip), vehicle: Klucel (hydroxypropylcellulose) (HPC)): 102 % of control | T/C (dose: 100.0 mg/kg/injection, schedule: Q04DX002 (ip), vehicle: Klucel (hydroxypropylcellulose) (HPC)): 100 % of control | T/C (dose: 200.0 mg/kg/injection, schedule: Q04DX002 (ip), vehicle: Klucel (hydroxypropylcellulose) (HPC)): 100 % of control

O=C1CS(=O)(=O)C(c2ccc(Cl)cc2)N1N1C(=O)CS(=O)(=O)C1c1ccc(Cl)cc1 (stereo not drawn)
T/C (dose: 25.0 mg/kg/injection, schedule: Q01DX005 (ip), vehicle: saline with Tween-80): 98 % of control and 109 % of control | T/C [11]: 95 % of control and 96 % of control | T/C [12]: 87 % of control and 95 % of control

NCCNCCNCCNCCN (tested in a mixture with another compound)
T/C (dose: 25.0 mg/kg/injection, schedule: Q01DX009 (ip), vehicle: saline): 118 % of control | T/C (dose: 50.0 mg/kg/injection, schedule: Q01DX009 (ip), vehicle: saline): 118 % of control | T/C (dose: 100.0 mg/kg/injection, schedule: Q01DX009 (ip), vehicle: saline): 100 % of control

NC(=O)CS(=O)CC(N)C(=O)O (stereo not drawn)
T/C (dose: 50.0 mg/kg/injection, schedule: Q01DX005 (ip), vehicle: saline): 100 % of control | T/C (dose: 100.0 mg/kg/injection, schedule: Q01DX005 (ip), vehicle: saline): 105 % of control | T/C (dose: 200.0 mg/kg/injection, schedule: Q01DX005 (ip), vehicle: saline): 95 % of control

C1CCC2(CC1)CSC2.[Br][Hg][Br]
T/C (dose: 6.25 mg/kg/injection, schedule: Q01DX001 (ip), vehicle: saline with Tween-80): 89 % of control | T/C (dose: 12.5 mg/kg/injection, schedule: Q01DX001 (ip), vehicle: saline with Tween-80): 87 % of control

CCCCCCCCCCCC(=O)Nc1ncc([N+](=O)[O-])s1
T/C [13]: 101 % of control | T/C [14]: 102 % of control | T/C [15]: 106 % of control

O=C1CC2(CCCC2)C(=O)N1c1cccc([N+](=O)[O-])c1
T/C [13]: 92 % of control | T/C [14]: 106 % of control | T/C [15]: 101 % of control

CCCSP(=S)(c1ccc(Cl)cc1)c1ccc(Cl)cc1
T/C (dose: 100.0 mg/kg/injection, schedule: Q04DX002 (ip), vehicle: saline): 106 % of control | T/C (dose: 200.0 mg/kg/injection, schedule: Q04DX002 (ip), vehicle: saline): 103 % of control | T/C (dose: 400.0 mg/kg/injection, schedule: Q04DX002 (ip), vehicle: saline): 103 % of control

[O-]c1nn(C2OC(CO)C(O)C2O)c2cccc[n+]12 (stereo not drawn)
T/C [8]: 110 % of control | T/C [9]: 108 % of control | T/C [10]: 95 % of control

CNCCNc1ccc(C)c2sc3ccc(O)cc3c(=O)c12
T/C [16]: 95 % of control

OB(O)c1ccc(B(O)O)cc1
T/C [13]: 104 % of control | T/C [14]: 103 % of control | T/C [15]: 95 % of control | T/C (dose: 400.0 mg/kg/injection, schedule: Q01DX009 (ip), vehicle: Klucel (hydroxypropylcellulose) (HPC)): 104 % of control

N#[O+].O.O=N[O-].O=N[O-].O=N[O-].O=N[O-].[Ru]
T/C (dose: 3.13 mg/kg/injection, schedule: Q04DX003 (ip), vehicle: water): 113 % of control | T/C (dose: 6.25 mg/kg/injection, schedule: Q04DX003 (ip), vehicle: water): 106 % of control and 118 % of control

C1CSCCSCCCSCCSC1
T/C [2]: 91 % of control | T/C [3]: 106 % of control and 90 % of control | T/C [17]: 91 % of control and 92 % of control | T/C [18]: 96 % of control | T/C (dose: 400.0 mg/kg/injection, schedule: Q01DX009 (ip), vehicle: saline with Tween-80): 91 % of control

CC1=NN(C(=O)c2cccnc2)C(=O)C1N=Nc1ccc(S(=O)(=O)Nc2nc(C)cc(C)n2)cc1 (stereo not drawn)
T/C [3]: 101 % of control | T/C [17]: 99 % of control | T/C [18]: 99 % of control

CC(=O)Nc1nc(C)c([N+](=O)[O-])s1
T/C [3]: 105 % of control | T/C [17]: 93 % of control | T/C [18]: 100 % of control

[O-]c1cc2c3c(c1)c1cc4c(cc1c[n+]3C=C2)OCO4
T/C (dose: 25.0 mg/kg/injection, schedule: Q01DX009 (ip), vehicle: other): 123 % of control

C=CCOc1cc2c(cc1C/C=C/c1ccccc1)OCO2
T/C [11]: 102 % of control | T/C [12]: 103 % of control | T/C (dose: 200.0 mg/kg/injection, schedule: Q01DX005 (ip), vehicle: saline with Tween-80): 109 % of control

CCOCc1c(-c2ccccc2)sc2ccccc2c1=O
T/C [5]: 98 % of control | T/C [7]: 95 % of control | T/C [6]: 92 % of control

CN(C)NC(=O)c1ccc(C(=O)NN(C)C)cc1
T/C [13]: 108 % of control | T/C [14]: 108 % of control | T/C [15]: 113 % of control

CCCC(O)C(NC(=O)c1ccccc1)C(=O)O (stereo not drawn)
T/C [3]: 92 % of control | T/C [17]: 98 % of control and 95 % of control | T/C [18]: 95 % of control and 98 % of control

C[n+]1nnn(/N=C\c2ccccc2)c1N
T/C (dose: 12.5 mg/kg/injection, schedule: Q01DX009 (ip), vehicle: Klucel (hydroxypropylcellulose) (HPC)): 100 % of control | T/C [16]: 97 % of control | T/C [13]: 104 % of control

NCCSC(C[N+](=O)[O-])c1ccc2c(c1)OCO2 (stereo not drawn)
T/C [1]: 119 % of control | T/C [2]: 124 % of control

CC(C)C1=CC2=C(C(=O)C1=O)C13CCCC(C)(C)C1CC2OC3=O (stereo not drawn)
T/C (dose: 7.0 mg/kg/injection, schedule: Q01DX005 (ip), vehicle: saline with Tween-80): 105 % of control | T/C (dose: 14.0 mg/kg/injection, schedule: Q01DX005 (ip), vehicle: saline with Tween-80): 104 % of control | T/C (dose: 28.0 mg/kg/injection, schedule: Q01DX005 (ip), vehicle: saline with Tween-80): 109 % of control

Nc1[nH]c(=S)nc2nc[nH]c12
T/C (dose: 6.25 mg/kg/injection, schedule: Q01DX005 (ip), vehicle: saline with Tween-80): 103 % of control | T/C (dose: 12.5 mg/kg/injection, schedule: Q01DX005 (ip), vehicle: saline with Tween-80): 100 % of control

CCCCCCCCCCSCC(N)CO (stereo not drawn)
T/C (dose: 6.25 mg/kg/injection, schedule: Q01DX009 (ip), vehicle: saline with Tween-80): 93 % of control | T/C [1]: 100 % of control | T/C [2]: 100 % of control

CCOC(=O)c1ccc(N(CCOS(C)(=O)=O)CCOS(C)(=O)=O)cc1
T/C [3]: 190 % of control | T/C [17]: 215 % of control | T/C (dose: 100.0 mg/kg/injection, schedule: Q04DX003 (ip), vehicle: saline with Tween-80): 154 % of control | T/C (dose: 132.0 mg/kg/injection, schedule: Q04DX003 (ip), vehicle: saline with Tween-80): 186 % of control | T/C [18]: 95 % of control | T/C (dose: 200.0 mg/kg/injection, schedule: Q04DX003 (ip), vehicle: saline with Tween-80): 150 % of control and 195 % of control | T/C (dose: 300.0 mg/kg/injection, schedule: Q04DX003 (ip), vehicle: saline with Tween-80): 172 % of control

Cc1c2ccnc(C#N)c2c(C)c2c1[nH]c1ccccc12
T/C (dose: 0.78 mg/kg/injection, schedule: Q04DX003 (ip), vehicle: distilled water + Tween-80): 91 % of control | T/C (dose: 1.56 mg/kg/injection, schedule: Q04DX003 (ip), vehicle: distilled water + Tween-80): 97 % of control | T/C (dose: 3.13 mg/kg/injection, schedule: Q04DX003 (ip), vehicle: distilled water + Tween-80): 97 % of control | T/C (dose: 6.25 mg/kg/injection, schedule: Q04DX003 (ip), vehicle: distilled water + Tween-80): 87 % of control and 88 % of control
